According to ChEMBL document CHEMBL1201862, “PubChem BioAssay data set” (2004):
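Dose response: 5 concentrations. Exposure: 48 h. Format: 96-well plates. Endpoint: linear interpolation; highest concentration if not reached. The concentration for 50% growth inhibition is given as GI50.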 Activity calls are given as the source filed them. Cut-off read from the data, not from the text of the source: active = GI50 up to about 1.1 µM and inactive = higher.

Columns and labels:
Assay in all cases: NCI-60 cell line screen, 48 h
HCT-15 = tested on: HCT-15
A498 = tested on: A498
ACHN = tested on: ACHN
NCI-H460 = tested on: NCI-H460
IGROV-1 = tested on: IGROV-1
M14 = tested on: M14
U-251 = tested on: U-251
SK-MEL-28 = tested on: SK-MEL-28
HOP-62 = tested on: HOP-62
DLD-1 = tested on: DLD-1
LXFL 529 = tested on: LXFL 529
EKVX = tested on: EKVX
LOX IMVI = tested on: LOX IMVI
CAKI-1 = tested on: CAKI-1
SK-MEL-2 = tested on: SK-MEL-2
COLO 205 = tested on: COLO 205
NCI-H23 = tested on: NCI-H23
786-0 = tested on: 786-0
HOP-92 = tested on: HOP-92
HCT-116 = tested on: HCT-116
KM12 = tested on: KM12
OVCAR-4 = tested on: OVCAR-4
UO-31 = tested on: UO-31
SK-OV-3 = tested on: SK-OV-3
M19-MEL = tested on: M19-MEL
SK-MEL-5 = tested on: SK-MEL-5
DMS-273 = tested on: DMS-273
SNB-19 = tested on: SNB-19
NCI-H226 = tested on: NCI-H226
A549 = tested on: A549
SN12C = tested on: SN12C
XF498 = tested on: XF498
CCRF-CEM = tested on: CCRF-CEM
SF-295 = tested on: SF-295
HL-60 = tested on: HL-60
OVCAR-5 = tested on: OVCAR-5
SNB-75 = tested on: SNB-75
Malme-3M = tested on: Malme-3M
KM-20L2 = tested on: KM-20L2
OVCAR-3 = tested on: OVCAR-3
HT-29 = tested on: HT-29
DMS-114 = tested on: DMS-114
K562 = tested on: K562
UACC-257 = tested on: UACC-257
HCC 2998 = tested on: HCC 2998
SF-268 = tested on: SF-268
HOP-18 = tested on: HOP-18
NCI-H522 = tested on: NCI-H522
TK-10 = tested on: TK-10
SW-620 = tested on: SW-620
RPMI-8226 = tested on: RPMI-8226
UACC-62 = tested on: UACC-62
RXF 631 = tested on: RXF 631
SF-539 = tested on: SF-539
MOLT-4 = tested on: MOLT-4
OVCAR-8 = tested on: OVCAR-8
SR = tested on: SR
SNB-78 = tested on: SNB-78
RXF 393 = tested on: RXF 393

COC(=O)c1ccc(C(=O)OC)c2nc3cc(Cl)ccc3nc12
GI50 (HCT-15): > 100 µM
GI50 (A498): > 100 µM (inactive)
GI50 (ACHN): > 100 µM (inactive)
GI50 (NCI-H460): > 100 µM (inactive)
GI50 (IGROV-1): > 100 µM (inactive)
GI50 (M14): > 100 µM (inactive)
GI50 (U-251): > 100 µM (inactive)
GI50 (SK-MEL-28): > 100 µM (inactive)
GI50 (HOP-62): > 100 µM (inactive)
GI50 (DLD-1): > 100 µM (inactive)
GI50 (LXFL 529): > 100 µM (inactive)
GI50 (EKVX): > 100 µM (inactive)
GI50 (LOX IMVI): > 100 µM (inactive)
GI50 (CAKI-1): > 100 µM (inactive)
GI50 (SK-MEL-2): > 100 µM (inactive)
GI50 (COLO 205): > 100 µM (inactive)
GI50 (NCI-H23): > 100 µM (inactive)
GI50 (786-0): > 100 µM (inactive)
GI50 (HOP-92): > 100 µM (inactive)
GI50 (HCT-116): > 100 µM (inactive)
GI50 (KM12): > 100 µM (inactive)
GI50 (OVCAR-4): > 100 µM (inactive)
GI50 (UO-31): > 100 µM (inactive)
GI50 (SK-OV-3): > 100 µM (inactive)
GI50 (M19-MEL): > 100 µM (inactive)
GI50 (SK-MEL-5): > 100 µM (inactive)
GI50 (DMS-273): > 100 µM (inactive)
GI50 (SNB-19): > 100 µM (inactive)
GI50 (NCI-H226): > 100 µM (inactive)
GI50 (A549): > 100 µM (inactive)
GI50 (SN12C): > 100 µM (inactive)
GI50 (XF498): > 100 µM (inactive)
GI50 (CCRF-CEM): > 100 µM (inactive)
GI50 (SF-295): > 100 µM (inactive)
GI50 (HL-60): > 100 µM (inactive)
GI50 (OVCAR-5): > 100 µM (inactive)
GI50 (SNB-75): > 100 µM (inactive)
GI50 (Malme-3M): > 100 µM (inactive)
GI50 (KM-20L2): > 100 µM (inactive)
GI50 (OVCAR-3): > 100 µM (inactive)
GI50 (HT-29): 75.3 µM (inactive)
GI50 (DMS-114): > 100 µM (inactive)
GI50 (K562): > 100 µM (inactive)
GI50 (UACC-257): > 100 µM (inactive)
GI50 (HCC 2998): > 100 µM (inactive)
GI50 (SF-268): > 100 µM (inactive)
GI50 (HOP-18): > 100 µM (inactive)
GI50 (NCI-H522): > 100 µM (inactive)
GI50 (TK-10): > 100 µM (inactive)
GI50 (SW-620): > 100 µM (inactive)
GI50 (RPMI-8226): > 100 µM (inactive)
GI50 (UACC-62): > 100 µM (inactive)
GI50 (RXF 631): > 100 µM (inactive)
GI50 (SF-539): > 100 µM (inactive)
GI50 (MOLT-4): > 100 µM (inactive)
GI50 (OVCAR-8): > 100 µM (inactive)

CCCC/C=C1\CCC(CN2CCCC2)C1=O (centres undefined)
GI50 (HCT-15): 3.13 µM
GI50 (A498): 14.7 µM (inactive)
GI50 (ACHN): 6.46 µM (inactive)
GI50 (NCI-H460): 19.9 µM (inactive)
GI50 (IGROV-1): 18.4 µM (inactive)
GI50 (M14): 11.2 µM (inactive)
GI50 (U-251): 6.75 µM (inactive)
GI50 (SK-MEL-28): 15.7 µM (inactive)
GI50 (HOP-62): 18.4 µM (inactive)
GI50 (DLD-1): 3.76 µM (inactive)
GI50 (LXFL 529): 1.56 µM (inactive)
GI50 (EKVX): 3.98 µM (inactive)
GI50 (LOX IMVI): 8.09 µM (inactive)
GI50 (CAKI-1): > 10 µM (inactive)
GI50 (SK-MEL-2): 16 µM (inactive)
GI50 (COLO 205): 12.9 µM (inactive)
GI50 (NCI-H23): 17.7 µM (inactive)
GI50 (786-0): 1.83 µM (inactive)
GI50 (HOP-92): 12.1 µM (inactive)
GI50 (HCT-116): 14.3 µM (inactive)
GI50 (KM12): 2.61 µM (inactive)
GI50 (UO-31): 17.2 µM (inactive)
GI50 (SK-OV-3): 28.5 µM (inactive)
GI50 (SR): 4.36 µM (inactive)
GI50 (M19-MEL): 16.9 µM (inactive)
GI50 (SK-MEL-5): 17.3 µM (inactive)
GI50 (DMS-273): 16.7 µM (inactive)
GI50 (SNB-78): 26.4 µM (inactive)
GI50 (SNB-19): 21.8 µM (inactive)
GI50 (NCI-H226): 17.3 µM (inactive)
GI50 (A549): 18.5 µM (inactive)
GI50 (SN12C): 17.9 µM (inactive)
GI50 (XF498): 16.1 µM (inactive)
GI50 (CCRF-CEM): 3.5 µM (inactive)
GI50 (SF-295): 18.1 µM (inactive)
GI50 (HL-60): 8.61 µM (inactive)
GI50 (OVCAR-5): 19.1 µM (inactive)
GI50 (SNB-75): 18.4 µM (inactive)
GI50 (Malme-3M): 17.8 µM (inactive)
GI50 (KM-20L2): 14.7 µM (inactive)
GI50 (OVCAR-3): 17.1 µM (inactive)
GI50 (HT-29): 14.5 µM (inactive)
GI50 (DMS-114): 15.9 µM (inactive)
GI50 (K562): 2.71 µM (inactive)
GI50 (UACC-257): 18.1 µM (inactive)
GI50 (HCC 2998): 18.7 µM (inactive)
GI50 (SF-268): 16 µM (inactive)
GI50 (TK-10): 2.59 µM (inactive)
GI50 (SW-620): 2.07 µM (inactive)
GI50 (UACC-62): 17.1 µM (inactive)
GI50 (RXF 631): 17.7 µM (inactive)
GI50 (SF-539): 16.1 µM (inactive)
GI50 (MOLT-4): 3.57 µM (inactive)
GI50 (OVCAR-8): 15.1 µM (inactive)

Nc1nc[n+](Cc2ccccc2CCO)c2[nH]cnc12
GI50 (HCT-15): > 100 µM
GI50 (A498): > 100 µM (inactive)
GI50 (ACHN): > 100 µM (inactive)
GI50 (NCI-H460): > 100 µM (inactive)
GI50 (IGROV-1): > 100 µM (inactive)
GI50 (M14): > 100 µM (inactive)
GI50 (U-251): > 100 µM (inactive)
GI50 (SK-MEL-28): > 100 µM (inactive)
GI50 (HOP-62): > 100 µM (inactive)
GI50 (LXFL 529): > 100 µM (inactive)
GI50 (EKVX): > 100 µM (inactive)
GI50 (LOX IMVI): > 100 µM (inactive)
GI50 (CAKI-1): > 100 µM (inactive)
GI50 (SK-MEL-2): > 100 µM (inactive)
GI50 (COLO 205): > 100 µM (inactive)
GI50 (NCI-H23): > 100 µM (inactive)
GI50 (786-0): > 100 µM (inactive)
GI50 (RXF 393): > 100 µM (inactive)
GI50 (HOP-92): > 100 µM (inactive)
GI50 (KM12): > 100 µM (inactive)
GI50 (OVCAR-4): > 100 µM (inactive)
GI50 (UO-31): 89.3 µM (inactive)
GI50 (SK-OV-3): > 100 µM (inactive)
GI50 (M19-MEL): > 100 µM (inactive)
GI50 (SK-MEL-5): > 100 µM (inactive)
GI50 (DMS-273): > 100 µM (inactive)
GI50 (SNB-19): > 100 µM (inactive)
GI50 (NCI-H226): 36.5 µM (inactive)
GI50 (A549): > 100 µM (inactive)
GI50 (SN12C): > 100 µM (inactive)
GI50 (XF498): > 100 µM (inactive)
GI50 (CCRF-CEM): > 100 µM (inactive)
GI50 (SF-295): > 100 µM (inactive)
GI50 (HL-60): > 100 µM (inactive)
GI50 (OVCAR-5): > 100 µM (inactive)
GI50 (SNB-75): > 100 µM (inactive)
GI50 (Malme-3M): > 100 µM (inactive)
GI50 (KM-20L2): > 100 µM (inactive)
GI50 (OVCAR-3): > 100 µM (inactive)
GI50 (HT-29): > 100 µM (inactive)
GI50 (DMS-114): > 100 µM (inactive)
GI50 (K562): > 100 µM (inactive)
GI50 (UACC-257): > 100 µM (inactive)
GI50 (SF-268): > 100 µM (inactive)
GI50 (HOP-18): > 100 µM (inactive)
GI50 (NCI-H522): > 100 µM (inactive)
GI50 (TK-10): > 100 µM (inactive)
GI50 (SW-620): > 100 µM (inactive)
GI50 (RPMI-8226): > 100 µM (inactive)
GI50 (UACC-62): > 100 µM (inactive)
GI50 (RXF 631): > 100 µM (inactive)
GI50 (SF-539): > 100 µM (inactive)
GI50 (MOLT-4): > 100 µM (inactive)
GI50 (OVCAR-8): > 100 µM (inactive)
